{"source": "paper PMC11464777", "about": "“Approved drugs successfully repurposed against Leishmania based on machine learning predictions” (Frontiers in Cellular and Infection Microbiology, 2024)", "key": {"[1]": {"test_system": "multiple strains of L. donovani", "parameters": "method as in Pandharkar et al., 2014", "conditions": "ref Pandharkar et al., 2014, read-out: IC50 in vitro; cited from earlier work"}, "L. infantum [2]": {"test_system": "L. infantum", "parameters": "method as in Gómez-Ochoa et al., 2009", "conditions": "98 dogs naturally infected with L. infantum, 12-months follow-up; ref Gómez-Ochoa et al., 2009; cited from earlier work"}, "L. infantum [3]": {"test_system": "L. infantum", "parameters": "method as in Cavalera et al., 2021", "conditions": "dogs with leishmaniasis and chronic kidney disease; ref Cavalera et al., 2021; cited from earlier work"}, "[4]": {"test_system": "L. infantum (LV50 and Drep-14) and L. major (Empa-12) promastigotes", "test": "MTT promastigote viability assay, stated across the three strains", "type": "cell-based, Leishmania infantum, Leishmania major", "conditions": "72 h; for Effect on promastigote viability: three strains, at the tested concentrations", "from_the_text": "(§1) Three Tunisian laboratory strains already described ([Oualha et al., 2019]), originally isolated from distinct clinical manifestations were used in this study: (i) L. infantum LV50 MHOM/TN/94/LV50) strain originating from a bone marrow of a visceral leishmaniasis patient, (ii) L. infantum Drep-14 (MHOM/TN/96/Drep-14) strain isolated from a lesion of a sporadic cutaneous leishmaniasis patient and (iii) L. major Empa-12 (MHOM/TN/2012/Empa-12) strain isolated from a zoonotic cutaneous leishmaniasis patient. Stocks of these parasites obtained after passage through BALB/c mice were used as previously described ([Oualha et al., 2019]). Thawed cryopreserved parasites were cultured at 22°C in RPMI-1640/Glutamax medium (Gibco BRL, Germany) containing penicillin (100 U/mL) and streptomycin (100 μg/mL) supplemented with 10% heat-inactivated Fetal Bovine Serum (FBS) (Gibco BRL, Germany).\n(§2) The effect of the selected compounds on the viability of Leishmania promastigotes was evaluated by a colorimetric MTT (3-(4,5-dimethylthiazol-2yl)-2,5-diphenyl tetrazolium bromide) assay. It consists in the reduction of tetrazolium salt to a […] crystal (blue formazan) by the succinate dehydrogenase activity of mitochondria in living cells, which can be quantified by spectrophotometry. Briefly, 90 μL of promastigotes (5 × 10^5 parasites/well) harvested from the stationary growth phase of each strain were added to a 96-well culture plate and incubated with 10 μL of a range of serial dilutions of the selected compounds in technical replicates (final concentration of 1% DMSO per well) ([Ioset et al., 2009]; [Harigua-Souiai et al., 2018]). […] After 72h of incubation at 22°C, 25 μl of MTT solution (5 mg/mL) was added to each well and incubated at 22°C for 4h. Then, 150 μl of DMSO was added to each well to dissolve the blue formazan and the optical density (OD) was measured at 570 nm with a microplate reader ([…], Labsystems). Promastigotes incubated in complete medium containing 1% DMSO were used as negative control. The standard anti-Leishmania drug, Amphotericin B was used as a positive control. All experiments were performed in two technical replicates and repeated three times in independent experiments. The mean percentage of promastigotes viability was calculated from the Optical Density at 570 nm as follows:\n(§3) Promastigote viability (%)= [(ODcompound− ODblank)/(ODnegative control −ODblank)]*100\n(§4) Results were expressed as the mean value of the percentage of promastigotes viability ± standard deviation (SD)."}, "[5]": {"test": "Cytotoxicity assay towards THP-1-derived macrophages (MTT)", "type": "cell-based, human", "conditions": "human, THP-1-derived macrophages (PMA-differentiated), 72 h of treatment, uninfected cells, MTT", "procedure": "(§5) Louis, MO, USA). The PMA-treated THP-1 cells were maintained in this condition for 24 h, followed by a 24 h of rest period after the removal of PMA. […] The cytotoxicity towards THP-1-derived macrophages was assessed after 24, 48 and 72 hours of incubation by MTT assay as described above. […] The percentage of viable cells was calculated from the Optical Density at 570 nm as follows: […]"}, "[6]": {"test_system": "THP-1-derived macrophages", "test": "Cytotoxicity assay towards THP-1-derived macrophages (MTT)", "type": "cell-based, human", "procedure": "as §5"}, "[7]": {"test_system": "L. infantum LV50 intracellular amastigotes", "test": "Anti-amastigote assay in THP-1-derived macrophages, L. infantum LV50", "type": "cell-based, Leishmania infantum", "conditions": "for IC50: Leishmania infantum, Macrophage, LV50, intramacrophage, 72 h", "procedure": "(§6) THP-1-derived macrophages (5 × 10^4/well) were seeded in each 8-well Labtek slides (Thermo Scientific). Adherent macrophages were obtained as described above, then infected with stationary phase promastigotes of each strain at a ratio 10:1 (10 parasites/macrophage) in RPMI medium containing penicillin (100 U/mL) and streptomycin (100 μg/mL) with 10% fetal bovine serum (Gibco, Brazil) at 37°C in 5% CO2 for 24 h. […] Non-infected control cells were incubated in a supplemented RPMI medium containing 1% DMSO. After 72h of incubation, cells were fixed and stained using May-Grunwald-Giemsa staining with RAL 555 Kit (RAL DIAGNOSTICS, France), following the manufacturer’s instructions. The percentage of infected cells and the total number of internalized parasites per 100 macrophages were determined under immersion oil (magnification of 1000X) using light microscopy. The percentage of amastigotes viability was expressed as the percentage of total number of internalized parasites within treated cells relative to the total number of internalized parasites within control cells treated with 1% DMSO, and calculated as follows:\n(§7) Relative amastigote viability (%) = [(number of amastigotes/100 treated cells)/(number of amastigotes/100 treated cells with1% DMSO)] * 100\n(§8) The relative percentage of amastigote viability was evaluated to calculate half inhibitory concentrations (IC50). The mean IC50 values were determined by plotting the curves of the logarithm of compound concentrations versus the relative amastigote viability of three independent experiments performed in two technical replicates for each compound fitted into a nonlinear regression model, using GraphPad Prism version 8.0.1. Selectivity Index (SI) values were calculated as the ratio between cytotoxicity and activity against amastigotes and determined for each compound as follows: SI= CC50/IC50."}, "[8]": {"test_system": "Leishmania (Viannia) braziliensis", "parameters": "method as in Cazorla et al., 2004", "conditions": "hamsters infected with Leishmania (Viannia) braziliensis, versus Glucantime; ref Cazorla et al., 2004; cited from earlier work"}, "[9]": {"test_system": "L. infantum LV50 promastigotes", "test": "MTT-based promastigote viability assay, L. infantum LV50", "type": "cell-based", "conditions": "Leishmania infantum, LV50, 72 h, MTT", "from_the_text": "as §1, §2, §3, §4"}, "[10]": {"test_system": "L. major Empa-12 intracellular amastigotes", "test": "Anti-amastigote assay in THP-1-derived macrophages, L. major Empa-12", "type": "cell-based, Leishmania major", "conditions": "for IC50: Leishmania major, Macrophage, Empa-12, intramacrophage, 72 h", "procedure": "as §6, §7, §8"}, "[11]": {"test_system": "L. infantum Drep-14 intracellular amastigotes", "test": "Anti-amastigote assay in THP-1-derived macrophages, L. infantum Drep-14", "type": "cell-based, Leishmania infantum", "conditions": "Leishmania infantum, Macrophage, Drep-14, intramacrophage, 72 h", "procedure": "as §6, §7, §8"}, "[12]": {"test_system": "L. infantum Drep-14 promastigotes", "test": "microbe, parasite or virus in culture", "type": "cell-based", "conditions": "Leishmania infantum, 72 h", "from_the_text": "as §1, §2, §3, §4"}, "[13]": {"test_system": "L. major and L. infantum amastigotes", "test": "Anti-amastigote assay, stated across the three strains", "type": "cell-based, Leishmania infantum, Leishmania major", "conditions": "CC50/IC50 amastigotes", "procedure": "as §6, §7, §8"}, "[14]": {"test_system": "L. major Empa-12 promastigotes", "test": "MTT-based promastigote viability assay, L. major Empa-12", "type": "cell-based", "conditions": "Leishmania major, Empa-12, 72 h, MTT", "from_the_text": "as §1, §2, §3, §4"}, "[15]": {"conditions": "read-out: THP-1-derived macrophages CC50"}, "[16]": {"conditions": "read-out: THP-1-derived macrophages CC50 (in brackets) (converted)"}, "[17]": {"conditions": "read-out: Amastigotes IC50 (in brackets) (converted)"}, "[18]": {"conditions": "read-out: Promastigotes IC50 (in brackets) (converted)"}}, "note": "Read-outs that look alike come from different tables or passages of the source.", "data": [{"smiles": "OC(Cn1cncn1)(Cn1cncn1)c1ccc(F)cc1F", "note": "[Fluconazole]", "values": [{"measurement": "IC50", "setting": "[1]", "result": "140 ± 50", "unit": "µM"}]}, {"smiles": "O=c1[nH]c2ccccc2n1CCCN1CCC(n2c(=O)[nH]c3cc(Cl)ccc32)CC1", "note": "[Domperidone]", "values": [{"measurement": "Clinical outcome in dogs", "setting": "L. infantum [2]", "result": "effectively reduced clinical symptoms and antibody levels"}, {"measurement": "Serum markers in dogs", "setting": "L. infantum [3]", "result": "improve serum creatinine and to reduce anti-L. infantum antibody titers, globulins, gamma globulins, and C-reactive protein (CRP)"}, {"measurement": "Effect on promastigote viability", "setting": "[4]", "result": "dose-dependent decrease of parasite viability"}, {"measurement": "CC50 at 72 h", "setting": "[5]; [15]", "result": "26.5 ± 2.6", "unit": "µg/mL"}, {"measurement": "CC50 at 72 h", "setting": "[5]; [16]", "result": 62.4, "unit": "µM"}, {"measurement": "Concentration at which cytotoxic effects start", "setting": "[6]; 24 h of incubation", "result": 25000, "unit": "ng/mL"}, {"measurement": "Concentration at which cytotoxic effects start", "setting": "[6]; 48 h of incubation", "result": 25000, "unit": "ng/mL"}, {"measurement": "Concentration at which cytotoxic effects start", "setting": "[6]; 72 h of incubation", "result": 25000, "unit": "ng/mL"}]}, {"smiles": "CCCCOc1cc(C(=O)NCCN(CC)CC)c2ccccc2n1", "note": "[Dibucaine]", "values": [{"measurement": "Selectivity Index (SI)", "setting": "[7]; CC50 THP-1 / IC50 amastigotes LV50, 72 h", "result": 31.97}, {"measurement": "IC50", "setting": "[7]; read-out: Amastigotes IC50", "result": "0.71 ± 0.09", "unit": "µg/mL"}, {"measurement": "IC50", "setting": "[7]; [17]", "result": 1.87, "unit": "µM"}, {"measurement": "Efficacy of intralesional treatment in hamsters", "setting": "[8]", "result": "comparable to the standard dosages of Glucantime"}, {"measurement": "IC50", "setting": "[9]; read-out: Promastigotes IC50", "result": "0.58 ± 0.02", "unit": "µg/mL"}, {"measurement": "IC50", "setting": "[9]; [18]", "result": 1.53, "unit": "µM"}, {"measurement": "Selectivity Index (SI)", "setting": "[10]; CC50 THP-1 / IC50 amastigotes Empa-12, 72 h", "result": 27.35}, {"measurement": "IC50", "setting": "[10]; read-out: Amastigotes IC50", "result": "0.83 ± 0.05", "unit": "µg/mL"}, {"measurement": "IC50", "setting": "[10]; [17]", "result": 2.19, "unit": "µM"}, {"measurement": "IC50", "setting": "[11]; read-out: Amastigotes IC50", "result": "0.9 ± 0.03", "unit": "µg/mL"}, {"measurement": "IC50", "setting": "[11]; [17]", "result": 2.37, "unit": "µM"}, {"measurement": "IC50", "setting": "[12]; read-out: Promastigotes IC50", "result": "1.05 ± 0.06", "unit": "µg/mL"}, {"measurement": "IC50", "setting": "[12]; read-out: Promastigotes IC50 (in brackets)", "result": 2.76, "unit": "µM"}, {"measurement": "IC50", "setting": "[4]; Leishmania infantum, LV50, Drep-14, Empa-12, MTT, read-out: Promastigotes IC50, span over the three strains", "result": "0.58 to 1.05", "unit": "µg/mL"}, {"measurement": "Effect on promastigote viability", "setting": "[4]", "result": "dose-dependent decrease of parasite viability"}, {"measurement": "CC50 at 72 h", "setting": "[5]; [15]", "result": "22.7 ± 1.08", "unit": "µg/mL"}, {"measurement": "CC50 at 72 h", "setting": "[5]; [16]", "result": 59.7, "unit": "µM"}, {"measurement": "Concentration at which cytotoxic effects start", "setting": "[6]; 24 h of incubation", "result": 30000, "unit": "ng/mL"}, {"measurement": "Concentration at which cytotoxic effects start", "setting": "[6]; 48 h of incubation", "result": 30000, "unit": "ng/mL"}, {"measurement": "Concentration at which cytotoxic effects start", "setting": "[6]; 72 h of incubation", "result": 15000, "unit": "ng/mL"}, {"measurement": "Selectivity index (SI), span over strains", "setting": "[13]", "result": "> 25"}, {"measurement": "IC50", "setting": "[14]; read-out: Promastigotes IC50", "result": "1.04 ± 0.09", "unit": "µg/mL"}, {"measurement": "IC50", "setting": "[14]; [18]", "result": 2.74, "unit": "µM"}]}]}
